Results on eight molecules are retold here after ChEMBL document CHEMBL2034878, “Chiral resolution, absolute configuration assignment and biological activity of racemic diarylpyrimidine CH(OH)-DAPY as potent nonnucleoside HIV-1 reverse transcriptase inhibitors” (Eur J Med Chem, 2012).

Data set [1] deals with Human immunodeficiency virus 1. The data set is described as follows: Antiviral activity against HIV1 3B harboring wild type RT infected in MT4 cells assessed as inhibition of virus-induced cytopathic effect after 5 days by MTT assay. The class given is functional, organism-based. Conditions: Human immunodeficiency virus 1, 3B, MT4, 120 h. A general note: Cytopathic effects are the visible damage that an infection or toxin causes in cultured cells.

In data set [2] the test system is Human immunodeficiency virus 1. Nature of the data set: Antiviral activity against HIV1 RES056 harboring K103N/Y181C RT mutant infected in MT4 cells assessed as inhibition of virus-induced cytopathic effect after 5 days by MTT assay. In kind it is functional, organism-based. Conditions: Human immunodeficiency virus 1, RES056, MT4, 120 h.
The subject of data set [3] is Human immunodeficiency virus 2. The data set is described as follows: Antiviral activity against HIV2 ROD […] infected in MT4 cells assessed as inhibition of virus-induced cytopathic effect after 5 days by MTT assay. The class given is functional, organism-based. The settings on record: Human immunodeficiency virus 2, ISOLATE ROD, MT4, 120 h.
Data set [4] is described as follows: Cytotoxicity against human MT4 cells after 5 days by MTT assay. The class given is cell-based. On the technique in general: Tetrazolium dyes change colour on reduction, which living cells bring about.
Data set [5] is described as follows: Selectivity index ratio of CC50 for human MT4 cells to EC50 for HIV1 3B. The class given is toxicity, cell-based. The settings on record: read-out: Ratio CC50/EC50.
Data set [6] deals with Human immunodeficiency virus type 1 reverse transcriptase (Human immunodeficiency virus 1, UniProt Q72547). Nature of the data set: Inhibition of HIV1 wildtype reverse transcriptase using poly(rA)/oligo(dT)15 as template by colometric streptavidin alkaline phosphate reporter assay. A general note: In a reporter assay the amount or activity of a reporter protein is the signal.

The EC50 is the concentration giving half of the maximal effect. For orientation: CC50 means the concentration that lowers cell viability or growth by half. A low value points to greater toxicity to the cells. What is called IC50 is the point on the concentration scale where inhibition reaches its midpoint. Low values mean greater potency in that assay, high ones weaker potency in that assay.

Regarding `N#Cc1ccc(Nc2nccc([C@H](O)c3ccccc3Cl)n2)cc1`, the figures for the EC50 in data set [1], in data set [2] and in data set [3] were 0.005 µM, more than 36 µM and more than 36 µM, respectively. For the same molecule, it took 36 µM to reach half-maximal cytotoxicity in data set [4] (CC50 at 120 h). The selectivity ratio in data set [5] worked out at 6800.
`N#Cc1ccc(Nc2nccc([C@@H](O)c3ccccc3Cl)n2)cc1`: the EC50 in data set [1] was 0.065 µM; in data set [2], 8.8 µM; in data set [3], 11 µM. The same molecule gave a CC50 at 120 h in data set [4] of 25 µM. Moreover, the selectivity ratio in data set [5] was 373.
Turning to `N#Cc1ccc(Nc2nccc(C(O)c3ccccc3Cl)n2)cc1` (racemic), the EC50 in data set [2] is 9.4 µM; in data set [3] it was 7.6 µM. In addition, the midpoint of cytotoxicity in data set [4], the CC50 at 120 h, lay at 29 µM. The selectivity ratio in data set [5] came to 3230. This molecule also displayed an IC50 in data set [6] of 0.45 µM.
Regarding `CC(C)Nc1cccnc1N1CCN(C(=O)c2cc3cc(NS(C)(=O)=O)ccc3[nH]2)CC1` [DELAVIRDINE], the EC50 in data set [2] was more than 4.39 µM. This molecule also gave a CC50 at 120 h in data set [4] of more than 4.4 µM. In addition, the selectivity ratio in data set [5] was more than 274.
For the molecule `O=C1Nc2ccc(Cl)cc2[C@@](C#CC2CC2)(C(F)(F)F)O1` [EFAVIRENZ], the EC50 in data set [2] was found to be 0.44 µM. In addition, the CC50 at 120 h in data set [4] was more than 6.3 µM.
For the molecule `Cc1cc(C#N)cc(C)c1Oc1nc(Nc2ccc(C#N)cc2)nc(N)c1Br` [ETRAVIRINE], the EC50 is 0.002 µM in data set [1] and more than 28 µM in data set [3]. The CC50 at 120 h in data set [4] came out at 28 µM.
`Cc1ccnc2c1NC(=O)c1cccnc1N2C1CC1` [NEVIRAPINE]: the EC50 in data set [3] was more than 15 µM. The same molecule displayed a CC50 at 120 h in data set [4] of more than 15 µM.
For `Cc1cn([C@H]2C[C@H](N=[N+]=[N-])[C@@H](CO)O2)c(=O)[nH]c1=O` [ZIDOVUDINE], the concentration for a half-maximal effect (EC50) in data set [3] was determined as 0.007 µM. The same molecule gave a CC50 at 120 h in data set [4] not below 46 µM. For the same molecule, the selectivity ratio in data set [5] is not below 6360.
